Reference: patent US20250129078A1, “ERBB2 INHIBITORS” (Cogent Biosciences, Inc., priority 2023, published 2025)

The molecules below were run against EGFR WT (Homo sapiens (Human), UniProt P00533) (assay: ErbB enzyme assay (CisBio HTRF-KinEASE-TK), EGFR WT). Conditions: ATP at Km (25 μM), 1 h incubation.
Type: biochemical
Outline: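 HTRF KinEASE-TK kinase reactions ran 1 h at ambient temperature with three-fold serial compound dilutions, then were quenched with Sa-XL665 and TK-Ab-Cryptate. After 1 h more, 655/620 nm time-resolved fluorescence gave percent of control; a 4-parameter logistic fit defined IC50 at 50 POC.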

EGFR WT, sequence (P00533 25-1210): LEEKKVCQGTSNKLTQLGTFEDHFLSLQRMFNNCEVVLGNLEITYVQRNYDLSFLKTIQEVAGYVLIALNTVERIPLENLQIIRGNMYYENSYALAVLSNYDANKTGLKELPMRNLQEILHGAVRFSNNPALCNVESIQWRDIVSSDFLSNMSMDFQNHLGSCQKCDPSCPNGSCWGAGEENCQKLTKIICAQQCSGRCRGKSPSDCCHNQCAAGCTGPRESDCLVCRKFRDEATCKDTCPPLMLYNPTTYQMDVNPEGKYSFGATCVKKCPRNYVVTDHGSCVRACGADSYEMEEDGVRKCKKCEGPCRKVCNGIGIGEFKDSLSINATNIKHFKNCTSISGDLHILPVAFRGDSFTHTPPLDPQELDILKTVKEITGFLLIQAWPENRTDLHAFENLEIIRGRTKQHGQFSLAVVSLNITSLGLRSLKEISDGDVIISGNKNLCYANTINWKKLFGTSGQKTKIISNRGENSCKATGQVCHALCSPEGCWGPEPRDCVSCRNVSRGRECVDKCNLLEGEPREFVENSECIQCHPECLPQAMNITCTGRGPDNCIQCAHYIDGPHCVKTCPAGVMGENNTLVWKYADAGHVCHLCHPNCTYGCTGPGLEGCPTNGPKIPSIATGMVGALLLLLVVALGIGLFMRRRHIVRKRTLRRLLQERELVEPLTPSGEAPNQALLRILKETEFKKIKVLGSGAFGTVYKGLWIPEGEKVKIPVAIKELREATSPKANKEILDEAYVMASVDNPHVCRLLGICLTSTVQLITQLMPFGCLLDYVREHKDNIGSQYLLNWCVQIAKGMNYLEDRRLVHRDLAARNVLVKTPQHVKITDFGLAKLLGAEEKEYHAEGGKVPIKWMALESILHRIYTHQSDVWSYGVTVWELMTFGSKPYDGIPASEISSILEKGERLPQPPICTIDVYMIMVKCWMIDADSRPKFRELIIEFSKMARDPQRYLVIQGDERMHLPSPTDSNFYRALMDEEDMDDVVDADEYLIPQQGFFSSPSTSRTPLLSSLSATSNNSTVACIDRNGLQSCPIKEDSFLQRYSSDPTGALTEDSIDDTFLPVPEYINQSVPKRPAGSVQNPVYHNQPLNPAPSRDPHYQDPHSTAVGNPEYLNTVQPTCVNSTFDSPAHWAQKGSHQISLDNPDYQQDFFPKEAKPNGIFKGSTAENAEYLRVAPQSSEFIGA

Row | SMILES | IC50 [nM]
1 | C=CC(=O)N1CCN(c2ccc3ncnc(Nc4ccc(Oc5cc6nnn(C)c6c(C)c5F)c(C)c4)c3n2)C[C@H]1C [Compound 288, (R)-1-(4-(4-((4-((6-fluoro-1,7-dimethyl-1H-benzo[d][1,2,3]triazol-5-yl)oxy)-3-methylphenyl)amino)pyrido[3,2-d]pyrimidin-6-yl)-2-methylpiperazin-1-yl)prop-2-en-1-one] | 100 to 500
2 | C=CC(=O)N[C@@H]1C[C@H](C)CN(c2ncc3ncnc(Nc4ccc(Oc5ccc6c(c5)nnn6C)c(C)c4F)c3n2)C1 (single isomer, unassigned) [Compound 203] | ≥ 1000
3 | C=CC(=O)N1CC2(C1)CN(c1ncc3ncnc(Nc4ccc(Oc5ccc6c(c5)nnn6C)c(C)c4F)c3n1)C2 [Compound 23, 1-(6-(8-((2-fluoro-3-methyl-4-((1-methyl-1H-benzo[d][1,2,3]triazol-5-yl)oxy)phenyl)amino)pyrimido [5,4-d]pyrimidin-2-yl)-2,6-diazaspiro[3.3]heptan-2-yl)prop-2-en-1-one] | ≥ 1000
4 | C=CC(=O)N[C@]1(C)CCCN(c2ncc3ncnc(Nc4ccc(Oc5ccc6c(c5)nnn6C)c(C)c4)c3n2)C1 [Compound 200, (R)-N-(3-methyl-1-(8-((3-methyl-4-((1-methyl-1H-benzo[d][1,2,3]triazol-5-yl)oxy)phenyl)amino)pyrimido[5,4-d]pyrimidin-2-yl)piperidin-3-yl)acrylamide] | < 50
5 | C=CC(=O)N1CCC(Oc2ncc3ncnc(Nc4ccc(Oc5cc(F)c6c(c5)nnn6C)c(C)c4)c3n2)CC1 [Compound 106, 1-(4-((8-((4-((7-fluoro-1-methyl-1H-benzo[d][1,2,3]triazol-5-yl)oxy)-3-methylphenyl)amino)pyrimido[5,4-d]pyrimidin-2-yl)oxy)piperidin-1-yl)prop-2-en-1-one] | < 50
6 | C=CC(=O)N1CCN(c2ccc3ncnc(Nc4ccc(Oc5cc(F)c6c(c5)nnn6C)c(C)c4)c3n2)C[C@H]1C [Compound 254, (R)-1-(4-(4-((4-((7-fluoro-1-methyl-1H-benzo[d][1,2,3]triazol-5-yl)oxy)-3-methylphenyl)amino)pyrido[3,2-d]pyrimidin-6-yl)-2-methylpiperazin-1-yl)prop-2-en-1-one] | 50 to 100
7 | C=CC(=O)N[C@@H]1C[C@H](C)CN(c2ccc3ncnc(Nc4ccc(Oc5ccc6c(c5)nnn6C)c(C)c4F)c3n2)C1 (single isomer, unassigned) [Compound 336] | ≥ 1000
8 | C=CC(=O)N1CCN(c2nc3c(Nc4ccc(Oc5ccc6c(c5)nnn6C)c(C)c4)ncnc3cc2OC)CC1 [Compound 98, 1-(4-(7-methoxy-4-((3-methyl-4-((1-methyl-1H-benzo[d][1,2,3]triazol-5-yl)oxy)phenyl)amino)pyrido[3,2-d]pyrimidin-6-yl)piperazin-1-yl)prop-2-en-1-one] | < 50
9 | C=CC(=O)N1CCN(c2ncc3ncnc(Nc4ccc(Oc5cc(F)c6c(c5)nnn6C)c(C)c4F)c3n2)C[C@H]1C1CC1 [Compound 197, (R)-1-(2-cyclopropyl-4-(8-((2-fluoro-4-((7-fluoro-1-methyl-1H-benzo[d][1,2,3]triazol-5-yl)oxy)-3-methylphenyl)amino)pyrimido[5,4-d]pyrimidin-2-yl)piperazin-1-yl)prop-2-en-1-one] | 100 to 500
10 | C=CC(=O)N1CCN(c2ncc3ncnc(Nc4ccc(Oc5cc(C)c6c(c5)nnn6C)c(C)c4)c3n2)CC1 [Compound 130, 1-(4-(8-((4-((1,7-dimethyl-1H-benzo[d][1,2,3]triazol-5-yl)oxy)-3-methylphenyl)amino)pyrimido[5,4-d]pyrimidin-2-yl)piperazin-1-yl)prop-2-en-1-one] | < 50
11 | C=CC(=O)N1[C@H](C)CN(c2ccc3ncnc(Nc4ccc(Oc5ccc6c(c5)nnn6C)c(C)c4)c3n2)C[C@H]1C [Compound 248, 1-((2R,6R)-2,6-dimethyl-4-(4-((3-methyl-4-((1-methyl-1H-benzo[d][1,2,3]triazol-5-yl)oxy)phenyl)amino)pyrido[3,2-d]pyrimidin-6-yl)piperazin-1-yl)prop-2-en-1-one] | ≥ 1000
12 | C=CC(=O)N[C@@H]1C[C@@H](C)CN(c2ncc3ncnc(Nc4ccc(Oc5ccc6c(c5)nnn6C)c(C)c4F)c3n2)C1 (single isomer, unassigned) [Compound 201] | ≥ 1000
13 | C=CC(=O)N[C@H]1C[C@@H](C)CN(c2ncc3ncnc(Nc4ccc(Oc5ccc6c(c5)nnn6C)c(C)c4F)c3n2)C1 (single isomer, unassigned) [Compound 204] | 50 to 100
14 | C=CC(=O)N[C@@]1(C)CCCN(c2ncc3ncnc(Nc4ccc(Oc5ccc6c(c5)nnn6C)c(C)c4)c3n2)C1 [Compound 146, (S)-N-(3-methyl-1-(8-((3-methyl-4-((1-methyl-1H-benzo[d][1,2,3]triazol-5-yl)oxy)phenyl)amino)pyrimido[5,4-d]pyrimidin-2-yl)piperidin-3-yl)acrylamide] | 500 to 1000
15 | C=CC(=O)N[C@@H]1[C@@H]2C[C@H]1CN(c1ncc3ncnc(Nc4ccc(Oc5ccc6c(c5)nnn6C)c(C)c4)c3n1)C2 [Compound 208, N-((1R,5S,6s)-3-(8-((3-methyl-4-((1-methyl-1H-benzo[d][1,2,3]triazol-5-yl)oxy)phenyl)amino)pyrimido[5,4-d]pyrimidin-2-yl)-3-azabicyclo[3.1.1]heptan-6-yl)acrylamide] | ≥ 1000
16 | C=CC(=O)N1CC(Oc2ncc3ncnc(Nc4ccc(Oc5cc(F)c6c(c5)ncn6C)c(C)c4)c3n2)C1 [Compound 388, 1-(3-((8-((4-((7-fluoro-1-methyl-1H-benzo[d]imidazol-5-yl)oxy)-3-methylphenyl)amino)pyrimido[5,4-d]pyrimidin-2-yl)oxy)azetidin-1-yl)prop-2-en-1-one] | < 50
17 | C=CC(=O)N[C@H]1C[C@@H](C)CN(c2ccc3ncnc(Nc4ccc(Oc5ccc6c(c5)nnn6C)c(C)c4F)c3n2)C1 (single isomer, unassigned) [Compound 337] | 100 to 500
18 | C=CC(=O)N1CCN(c2ccc3ncnc(Nc4ccc(Oc5cnc6c(c5)ncn6C(F)F)c(C)c4)c3n2)C[C@H]1C [Compound 249, (R)-1-(4-(4-((4-((3-(difluoromethyl)-3H-imidazo[4,5-b]pyridin-6-yl)oxy)-3-methylphenyl)amino)pyrido[3,2-d]pyrimidin-6-yl)-2-methylpiperazin-1-yl)prop-2-en-1-one] | < 50
19 | C=CC(=O)N1CCN(c2ncc3ncnc(Nc4ccc(Oc5cc(F)c6c(c5)ncn6C)c(C)c4F)c3n2)C[C@H]1CC [Compound 160, (R)-1-(2-ethyl-4-(8-((2-fluoro-4-((7-fluoro-1-methyl-1H-benzo[d]imidazol-5-yl)oxy)-3-methylphenyl)amino)pyrimido[5,4-d]pyrimidin-2-yl)piperazin-1-yl)prop-2-en-1-one] | < 50
20 | C=CC(=O)N1CCN(c2ncc3ncnc(Nc4ccc(Oc5cc(OC)c6c(c5)nnn6C)c(C)c4)c3n2)CC1 [Compound 113, 1-(4-(8-((4-((7-methoxy-1-methyl-1H-benzo[d][1,2,3]triazol-5-yl)oxy)-3-methylphenyl)amino)pyrimido[5,4-d]pyrimidin-2-yl)piperazin-1-yl)prop-2-en-1-one] | < 50
21 | C=CC(=O)N1CCN(c2ccc3ncnc(Nc4ccc(Oc5cc(F)c6c(c5)nnn6C)c(C)c4F)c3n2)C[C@@H]1C1CC1 [Compound 292, (S)-1-(2-cyclopropyl-4-(4-((2-fluoro-4-((7-fluoro-1-methyl-1H-benzo[d][1,2,3]triazol-5-yl)oxy)-3-methylphenyl)amino)pyrido[3,2-d]pyrimidin-6-yl)piperazin-1-yl)prop-2-en-1-one] | 100 to 500
22 | C=CC(=O)N1CCN(c2ccc3ncnc(Nc4cc(C)c(Oc5ccc6c(c5)nnn6C)cc4OC(F)F)c3n2)C[C@H]1C [Compound 302, (R)-1-(4-(4-((2-(difluoromethoxy)-5-methyl-4-((1-methyl-1H-benzo[d][1,2,3]triazol-5-yl)oxy)phenyl)amino)pyrido[3,2-d]pyrimidin-6-yl)-2-methylpiperazin-1-yl)prop-2-en-1-one] | 100 to 500
23 | C=CC(=O)N1CCN(c2ccc3ncnc(Nc4c(OC)cc(Oc5cc(F)c6c(c5)ncn6C)c(C)c4F)c3n2)C[C@H]1C [Compound 257, (R)-1-(4-(4-((2-fluoro-4-((7-fluoro-1-methyl-1H-benzo[d]imidazol-5-yl)oxy)-6-methoxy-3-methylphenyl)amino)pyrido[3,2-d]pyrimidin-6-yl)-2-methylpiperazin-1-yl)prop-2-en-1-one] | < 50
24 | C=C(F)C(=O)N1CC=C(c2ccc3ncnc(Nc4ccc(Oc5ccc6c(c5)nnn6C)c(C)c4)c3n2)C1 [Compound 403, 2-fluoro-1-(3-(4-((3-methyl-4-((1-methyl-1H-benzo[d][1,2,3]triazol-5-yl)oxy)phenyl)amino)pyrido[3,2-d]pyrimidin-6-yl)-2,5-dihydro-1H-pyrrol-1-yl)prop-2-en-1-one] | 50 to 100
25 | C=CC(=O)N1CCC(Oc2ncc3ncnc(Nc4ccc(Oc5ccc6c(c5)ncn6C)c(C)c4)c3n2)CC1 [Compound 378, 1-(4-((8-((3-methyl-4-((1-methyl-1H-benzo[d]imidazol-5-yl)oxy)phenyl)amino)pyrimido[5,4-d]pyrimidin-2-yl)oxy)piperidin-1-yl)prop-2-en-1-one] | 50 to 100
26 | C=CC(=O)N1CC2CC1CN2c1ccc2ncnc(Nc3ccc(Oc4ccc5c(c4)nnn5C)c(C)c3)c2n1 (stereo not drawn) [Compound 81, 1-(5-(4-((3-methyl-4-((1-methyl-1H-benzo[d][1,2,3]triazol-5-yl)oxy)phenyl)amino)pyrido[3,2-d]pyrimidin-6-yl)-2,5-diazabicyclo[2.2.1]heptan-2-yl)prop-2-en-1-one] | < 50
27 | C=C(F)C(=O)N1C2CCC1CN(c1ccc3ncnc(Nc4ccc(Oc5ccc6c(c5)nnn6C)c(C)c4)c3n1)C2 [Compound 87, 2-fluoro-1-(3-(4-((3-methyl-4-((1-methyl-1H-benzo[d][1,2,3]triazol-5-yl)oxy)phenyl)amino)pyrido[3,2-d]pyrimidin-6-yl)-3,8-diazabicyclo[3.2.1]octan-8-yl)prop-2-en-1-one] | 500 to 1000
